Reference: US20090111893A1, “METHOD OF LOWERING BLOOD GLUCOSE AND METHOD OF PREVENTING OR TREATING BLOOD GLUCOSE AND METHOD OF PREVENTING OR TREATING DIABETES AND OBESITY” (National University Corporation Gunma University, priority 2007, published 2009)

Columns and labels:
[1] = tested on: Mouse 3T3-L1 fibroblasts; experiment: Glucose uptake of confluent 3T3-L1 fibroblasts (glucose concentration in medium); type: cell-based; conditions: for glucose uptake-promoting activity: 3T3-L1 cells, same condition as Example 1, FIG. 3, n=3
Protocol: (1) Mouse 3T3-L1 fibroblasts were cultured in 1 ml of a suitable medium (contained in a 12-well plastic dish) for several days until the cells reached confluence. Then, the cells were cultured for 10-12 hours in the nutrition medium (None), the nutrition medium to which only 0.2% ethanol, a solvent of DIF-1, was added (EtOH), and the nutrition medium to which 10 or 20 µM DIF-1 dissolved in ethanol was added, respectively, and then, glucose concentration in each of the media was determined, based on which glucose uptake rate of the cells was calculated and the ratio with respect to the control was plotted (FIG. 1). […] The data of FIG. 1 are shown by mean value and standard deviation (Bars) of four independent experiments (n=4). (2) Then, mouse 3T3L1 fibroblasts were cultured in 1 ml of a suitable medium (contained in a 12-well plastic dish) until the cells reached confluence. After changing the medium to a new medium (this time point corresponds to 0 hour in the graph), DIF-1 was added, and glucose concentration in the medium was measured at the time point of 20 hours (FIG. 2A), based on which glucose consumption rate was calculated (FIG. 2B). Then, the media were changed to new media containing no DIF-1 for all the samples, and after culture was continued for another 20 hours, glucose concentration was measured (FIG. 2A). The number of cells at this time point was also determined (FIG. 2C). The data of the graph are mean values and standard deviations (Bars) (n=3) of the results of triplicate samples evaluated under the same conditions.
Glucose uptake-promoting activity of DIF-1 and its artificial derivatives (2-MIDIF1, DMPH, THPH) were compared in the same condition as Example 1 (FIG. 3). The data of the graph are mean values and standard deviations (Bars) (n=3) of three independent experiments.
Glucose uptake-promoting activity of DIF-1 derivative compounds in 3T3-L1 cells was evaluated in the same manner as described above. The data of the graph are mean values and standard deviations (Bars) (n=3) of triplicate samples measured under the same conditions.

[2] = tested on: KKAy diabetic model mice; type: in vivo; conditions: for blood glucose level as compared with the control group: KKAy mice, intraperitoneal 25, 50 and 100 mg/kg, 4 and 8 hours after administration, n=2, FIG. 6; for death of mice: mouse, in vivo
Protocol: The in vivo effects of DIF-1 and DIF-1 (3M) were also evaluated with the KKAy diabetic model mice. The drugs were administered intraperitoneally to KKAy mice (male, 13 weeks: Clea Japan) at the concentrations of 25, 50, and 100 mg/kg, respectively, and after free feeding (Time 0), blood glucose level was monitored at the indicated time points (FIG. 6). Each of the experiments used two mice, and the mean values of the relative blood glucose concentrations and ½ variance (Bars)(n=2) were plotted.

[3] = tested on: RGM-1 cells (isolated from rat gastric mucosa); experiment: Glucose uptake of RGM-1 cells (glucose concentration in medium); type: cell-based
Protocol: Similar experiments were performed with RGM-1 cells (isolated from rat gastric mucosa) to evaluate the change in glucose concentration in the medium containing DIF-1 or other compounds (FIG. 4). The data of the graph are mean values and standard deviations (Bars) (n=3) of triplicate samples measured under the same conditions.

[4] = tested on: ICR mice; experiment: Blood glucose level in ICR mice after intraperitoneal glucose; type: in vivo, mouse; conditions: glucose 0.3 g/kg i.p. together with DIF-1, 50 mg/kg group and 100 mg/kg group, FIG. 7
Protocol: Glucose (0.3 g/kg) was administered intraperitoneally to ICR mice (male, 6-7 weeks) together with DIF-1 (solvent: 5% DMSO, 5% CREMOPHOR, and 90% distilled water), and blood glucose level was determined from just after the administration. Mice to which only glucose was administered was used as a control group, and mice to which neither glucose nor DIF-1 was administered was used as a normal group.

[5] = tested on: 3T3-L1 adipocytes; experiment: 2-deoxy glucose uptake in 3T3-L1 adipocytes, with or without insulin; type: cell-based, mouse
Protocol: Confluent 3T3-L1 fibroblasts (cultured in a 12-well plate) were treated with IBMX (3-isobutyl-1-methylxanhine), dexamethasone, and insulin to induce differentiation into 3T3-L1 adipocytes (Student A K, Hsu R Y & Lane M D (1980) J. Biol. Chem. 255, 4745-4750.). The 3T3-L1 adipocytes were cultured in the presence of DIF-1 whose concentration is shown in FIG. 5 for four hours, and 2-deoxy glucose uptake was measured. At the same time, some of the adipocytes were stimulated with 100 nM insulin during cultivation (after 3.5 hours) in the presence of DIF-1, and cultured for another 30 minutes, and glucose uptake of the cells was measured. Each experiment was performed in triplicates, and the mean values thereof were calculated in each experiment. Such experiments were performed twice and the mean values and ½ variance (Bars) of the two experiments (n=2) were plotted in FIG. 5.

Compound: COCc1nc2c([nH]1)c(=O)n(C)c(=O)n2CC(C)C [8-MIBMX, reference compound]
- glucose uptake-promoting activity [1]: did not promote glucose uptake

Compound: CNc1ccc2oc(C[C@H]3O[C@@]4(CC[C@H]3C)O[C@H]([C@H](C)C(=O)c3ccc[nH]3)[C@H](C)C[C@H]4C)nc2c1C(=O)O [A23187, reference compound]
- glucose uptake-promoting activity [1]: did not promote glucose uptake

Compound: COc1c(Cl)c(O)c(C(=O)CC(C)(C)C)c(O)c1Cl [DIF-1 (3M)]
- blood glucose level as compared with the control group [2]: low blood glucose level
- death of mice [2]: No mice died

Compound: CCCCCC(=O)c1c(O)c(Cl)c(OC)c(Cl)c1O [DIF-1]
- glucose uptake ([3]; 6- and 12-hour culture, FIG. 4): promotes glucose uptake in a concentration-dependent manner
- cell number ([3]; after 12-hour culture, FIG. 4C): without influencing cell number
- blood glucose level as compared with the control group [4]: significantly lowered blood glucose level
- cell morphology and cell damage by microscopic observation ([1]; 3T3-L1 fibroblasts in the presence of DIF-1): cell damage was not observed
- glucose uptake ratio of the cell (ratio with respect to the control) ([1]; 3T3-L1 fibroblasts, 10-12 hours culture, 10 or 20 µM DIF-1, FIG. 1, n=4): increased dependently on DIF-1 concentration
- glucose uptake of cells (glucose consumption rate) ([1]; 3T3-L1 fibroblasts, 20-hour culture with DIF-1, FIG. 2A/2B, n=3): promotes glucose uptake of cells in a concentration-dependent manner
- number of cells ([1]; 3T3-L1 fibroblasts, after 40-hour culture, FIG. 2C): without influencing the number of cells
- reversibility of the action on glucose uptake ([1]; 3T3-L1 fibroblasts, medium changed to DIF-1-free medium, another 20 hours, FIG. 2A): reversible
- 2-deoxy glucose uptake ([5]; DIF-1 singly, four hours, FIG. 5, n=2): promoted glucose uptake in a concentration-dependent manner
- 2-deoxy glucose uptake with insulin ([5]; relatively low concentration of DIF-1 plus 100 nM insulin for the last 30 minutes, FIG. 5): additive effect with insulin
- blood glucose level as compared with the control group [2]: low blood glucose level
- death of mice [2]: No mice died

Compound: C/C=C(/C)C(=O)O[C@H]1C(C)=C2[C@H]([C@@H]1OC(=O)CCCCCCC)[C@@](C)(OC(C)=O)C[C@H](OC(=O)CCC)[C@@]1(O)[C@H]2OC(=O)[C@@]1(C)O [Tg, Thapsigargin, reference compound]
- glucose uptake-promoting activity [1]: did not promote glucose uptake
